Assay results reported in patent publication US9145415B2, “Nitrogen-containing heterocyclic compound or salt thereof” (FUJIFILM Corporation, priority 2012, dated 2015).
Read-outs that look alike come from different tables or passages of the source.

Experiments:
MV4-11 cells = test: Leukemia cell proliferation inhibition test (ATPlite), MV4-11; assay type: cell-based; settings: read-out: MV4-11 cell proliferation inhibition effect
Summary of the method: (§1)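 Proliferation inhibition is quantified from total cellular ATP, measured by luciferase luminescence, after cells grow with compound for 72 hours. The GI50 is the concentration giving half the signal of the 0.1% DMSO control, fitted to a sigmoid curve from duplicate points.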

Molm-13 cells = test: Leukemia cell proliferation inhibition test (ATPlite), Molm-13; assay type: cell-based; settings: read-out: MOLM13 cell proliferation inhibition effect
Summary of the method: as §1

[1] = molecular target: T1, human FLT3 protein (FLT3 (WT)) (Homo sapiens, UniProt P36888); test: FLT3 inhibition test (FLT3 enzyme inhibition, time-resolved fluorescence of substrate peptide phosphorylation); assay type: biochemical; settings: read-out: FLT3 (WT) enzyme inhibition activity
T1 construct: human FLT3 protein (intracellular region, 564 to 993 aa); GST; purchased Carna Biosciences; host or cells: baculovirus expression system
T1 sequence (P36888 564-993): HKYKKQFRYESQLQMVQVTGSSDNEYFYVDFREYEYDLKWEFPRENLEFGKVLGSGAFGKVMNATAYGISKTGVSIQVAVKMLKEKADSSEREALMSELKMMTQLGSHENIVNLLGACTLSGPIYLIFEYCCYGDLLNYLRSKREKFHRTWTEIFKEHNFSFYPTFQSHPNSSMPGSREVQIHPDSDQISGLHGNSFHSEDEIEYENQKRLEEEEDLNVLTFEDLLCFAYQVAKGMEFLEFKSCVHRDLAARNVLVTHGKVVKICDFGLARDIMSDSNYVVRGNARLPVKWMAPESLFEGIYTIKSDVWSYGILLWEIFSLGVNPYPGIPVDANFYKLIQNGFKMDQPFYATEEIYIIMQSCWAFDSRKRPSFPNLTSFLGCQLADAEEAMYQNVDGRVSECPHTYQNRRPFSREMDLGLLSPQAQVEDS
Summary of the method: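 Wild-type human FLT3 (1.2 μg) pre-incubated with compound 15 min at 25° C in 100 mM HEPES pH 7.5, 10 mM MgCl2, 25 mM NaCl, 1 mM DTT. Reaction started with substrate peptide and ATP (final 50 μM), run 30 min at 25° C; phosphorylation read by time-resolved fluorescence.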

[2] = Homo sapiens, MV4-11, 72 h, MV4-11, 72 hours culture, ATPlite, GI50 per method
[3] = Homo sapiens, MOLM-13, 72 h, Molm-13, 72 hours culture, ATPlite, GI50 per method
[4] = GST-fused human FLT3 (564 to 993 aa), ATP 50 μM
[5] = Homo sapiens, MV4-11, MV4-11 cell
[6] = Homo sapiens, MOLM-13, MOLM13 cell

Compound	IC50 (MV4-11 cells; [2]) [nM]	IC50 (Molm-13 cells; [3]) [nM]	IC50 [1, 4] [nM]	IC50 (MV4-11 cells; [5]) [nM]	IC50 (Molm-13 cells; [6]) [nM]	IC50 ([1]; FLT3 (WT)) [nM]	IC50 (MV4-11 cells; MV4-11, 72 hours culture, ATPlite, GI50 per method) [nM]	IC50 (Molm-13 cells; Molm-13, 72 hours culture, ATPlite, GI50 per method) [nM]
CCCNc1nc(Nc2ccc3nnccc3c2)ncc1C(=O)Nc1cccc(NC(=O)[C@H](C)N(C)C(=O)/C=C/CN(C)C)c1 [Compound 6-11, (S,E)-2-(Cinnolin-6-ylamino)-N-(3-(2-(4-(dimethylamino)-N-methyl-2-butenamido)propanamido)phenyl)-4-(propylamino)pyrimidine-5-carboxamide]	< 10	< 10	< 10	–	–	–	–	–
CCCNc1nc(Nc2ccc(F)nc2)ncc1C#CCCCNC(=O)[C@H](C)N(C)C(=O)/C=C/CN(C)C [Compound 7-21, (S,E)-4-(Dimethylamino)-N-(1-((5-(2-((6-fluoropyridin-3-yl)amino)-4-(propylamino)pyrimidin-5-yl)-4-pentyn-1-yl)amino)-1-oxopropan-2-yl)-N-methyl-2-butenamide]	< 10	< 10	< 10	–	–	–	–	–
CNc1nc(Nc2ccc(F)cc2)ncc1C#CCCCNC(=O)CN(C)C(=O)/C=C/CN(C)C [Compound 7-89]	< 10	< 10	< 10	–	–	–	–	–
CCCNc1nc(Nc2ccc(OC)nc2)ncc1C#CCCCNC(=O)[C@H](C)N(C)C(=O)/C=C/CN(C)C [Compound 7-23]	< 10	10 to 100	< 10	–	–	–	–	–
C=CC(=O)NCCCNC(=O)c1cnc(NCCc2ccncc2)nc1NCCC [Compound 2-21]	10 to 100	10 to 100	10 to 100	–	–	–	–	–
CCCNc1nc(Nc2cc(C)no2)ncc1C#CCCCNC(=O)[C@@H]1CCCN1C(=O)/C=C/CN(C)C [Compound 7-79]	< 10	< 10	< 10	–	–	–	–	–
CNc1nc(Nc2ccc(F)cc2)ncc1C#CCCCNC(=O)[C@@H]1C[C@@H](F)CN1C(=O)/C=C/CN(C)C [Compound 7-81, (2S,4R)-1-((E)-4-(Dimethylamino)-2-butenoyl)-4-fluoro-N-(5-(2-((4-fluorophenyl)amino)-4-(methylamino)pyrimidin-5-yl)-4-pentyn-1-yl)pyrrolidine-2-carboxamide]	< 10	< 10	< 10	–	–	–	–	–
CCCNc1nc(Nc2ccc(C(N)=O)cc2)ncc1CCCCCNC(=O)CNC(=O)/C=C/CN(C)C [Compound 7-29]	10 to 100	100 to 1000	< 10	–	–	–	–	–
CCCNc1nc(NCCc2ccncc2)ncc1C(=O)Nc1cccc(NC(=O)[C@H](C)NC(=O)/C=C/CN(C)C)c1 [Compound 1-2, (S,E)-N-(3-(2-(4-(dimethylamino)-2-butenamido)propanamido)phenyl)-4-(propylamino)-2-((2-(pyridin-4-yl)ethyl)amino)pyrimidine-5-carboxamide]	< 10	10 to 100	< 10	–	–	–	–	–
CCCNc1nc(Nc2cccc(F)c2)ncc1C#CCCCNC(=O)[C@@H]1CCCN1C(=O)/C=C/CN(C)C [Compound 7-45]	–	–	< 10	–	–	–	< 10	< 10
CCCNc1nc(NCCc2ccncc2)ncc1C(=O)Nc1ccc(C)c(NC(=O)CNC(=O)/C=C/CN(C)C)c1 [Compound 1-8]	< 10	10 to 100	< 10	–	–	–	–	–
CCCNc1nc(NCCc2ccncc2)ncc1C(=O)Nc1cccc(NC(=O)CNC(=O)/C=C/CN2CCN(C)CC2)c1 [Compound 2-14]	10 to 100	10 to 100	< 10	–	–	–	–	–
CCCNc1nc(Nc2ccc(F)c(F)c2)ncc1C#CCCCNC(=O)[C@H](C)N(C)C(=O)/C=C/CN(C)C [Compound 7-41]	< 10	< 10	< 10	–	–	–	–	–
CCCNc1nc(Nc2cccc(F)c2)ncc1C#CCCCNC(=O)[C@@H]1CC(F)(F)CN1C(=O)/C=C/CN(C)C [Compound 7-53]	< 10	< 10	10 to 100	–	–	–	–	–
CNc1nc(Nc2cccc(F)c2)ncc1C#CCCCNC(=O)[C@@H]1C[C@H](O)CN1C(=O)/C=C/CN(C)C [Compound 7-74]	< 10	< 10	< 10	–	–	–	–	–
CCCNc1nc(NCCc2ccncc2)ncc1C(=O)Nc1cccc(NC(=O)CCNC(=O)/C=C/CN(C)C)c1 [Compound 2-10]	100 to 1000	100 to 1000	< 10	–	–	–	–	–

Continued, values first:

IC50 (MV4-11 cells; [2]) [nM]	IC50 (Molm-13 cells; [3]) [nM]	IC50 [1, 4] [nM]	IC50 (MV4-11 cells; [5]) [nM]	IC50 (Molm-13 cells; [6]) [nM]	IC50 ([1]; FLT3 (WT)) [nM]	IC50 (MV4-11 cells; MV4-11, 72 hours culture, ATPlite, GI50 per method) [nM]	IC50 (Molm-13 cells; Molm-13, 72 hours culture, ATPlite, GI50 per method) [nM]	Compound
–	–	–	< 10	< 10	< 10	–	–	CCCNc1nc(Nc2ccc3[nH]nc(OC)c3c2)ncc1C#CCCCNC(=O)[C@H](C)N(C)C(=O)/C=C/CN(C)C [Compound 22-64]
10 to 100	10 to 100	< 10	–	–	–	–	–	CCCNc1nc(Nc2cccc(F)c2)ncc1C#C[C@H]1CCCC(NC(=O)[C@H](C)N(C)C(=O)/C=C/CN(C)C)C1 (stereo in doubt) [Compound 13-2, (E)-4-(dimethylamino)-N—((S)-1-(((1R,3S)-3-((2-((3-fluorophenyl)amino)-4-(propylamino)pyrimidin-5-yl)ethynyl)cyclohexyl)amino)-1-oxopropan-2-yl)-N-methyl-2-butenamide]
< 10	< 10	< 10	–	–	–	–	–	CCCNc1nc(Nc2ccnc(OC)c2)ncc1C#C[C@H]1C[C@@H](NC(=O)[C@H](C)N(C)C(=O)/C=C/CN(C)C)C1 [Compound 14-6, (E)-4-(Dimethylamino)-N—((S)-1-(((1S,3R)-3-((2-((2-methoxypyridin-4-yl)amino)-4-(propylamino)pyrimidin-5-yl)ethynyl)cyclobutyl)amino)-1-oxopropan-2-yl)-N-methyl-2-butenamide]
–	–	–	< 10	< 10	< 10	–	–	CCCNc1nc(Nc2ccc3cn[nH]c3c2)ncc1C#CCCCNC(=O)[C@@H]1CCCN1C(=O)/C=C/CN(C)C [Compound 22-63]
–	–	–	< 10	< 10	< 10	–	–	CCCOc1nc(Nc2cccc(F)c2)ncc1C#C[C@@H]1CCC[C@H](NC(=O)[C@H](C)N(C)C(=O)/C=C/CN(C)C)C1 [Compound 21-52]
< 10	< 10	< 10	–	–	–	–	–	CN(C)C/C=C/C(=O)N1CCC[C@H]1C(=O)N[C@H]1C[C@@H](C#Cc2cnc(Nc3ccc(C#N)cc3)nc2NC2CC2)C1 [Compound 15-12]
< 10	< 10	< 10	–	–	–	–	–	CC(C)CN(C)c1nc(Nc2ccc(C#N)cc2)ncc1C#CCCCNC(=O)[C@H](C)N(C)C(=O)/C=C/CN(C)C [Compound 10-15]
–	–	–	< 10	< 10	< 10	–	–	CCCNc1nc(Nc2ccc3ncccc3c2)ncc1C#CCCCNC(=O)[C@H](C)N(C)C(=O)/C=C/CN(C)C [Compound 22-2]
< 10	10 to 100	< 10	–	–	–	–	–	C[C@@H](C(=O)NCCCC#Cc1cnc(Nc2ccc(F)cc2)nc1N1CCN(C)CC1)N(C)C(=O)/C=C/CN(C)C [Compound 10-28]
10 to 100	10 to 100	10 to 100	–	–	–	–	–	CCCNc1nc(NC)ncc1C#CCCCNC(=O)[C@H](C)N(C)C(=O)/C=C/CN(C)C [Compound 11-1, (S,E)-4-(dimethylamino)-N-methyl-N-(1-((5-(2-(methylamino)-4-(propylamino)pyrimidin-5-yl)-4-pentyn-1-yl)amino)-1-oxopropan-2-yl)-2-butenamide]
< 10	< 10	< 10	–	–	–	–	–	CNc1nc(Nc2ccc3cn[nH]c3c2)ncc1C#CCCCNC(=O)[C@H](C)N(C)C(=O)/C=C/CN(C)C [Compound 10-63]
< 10	< 10	< 10	–	–	–	–	–	CCCNc1nc(Nc2cccc(C#N)c2)ncc1C#C[C@@H]1CCC[C@H](NC(=O)[C@H](C)N(C)C(=O)/C=C/CN(C)C)C1 [Compound 13-7]
< 10	< 10	< 10	–	–	–	–	–	CCCNc1nc(Nc2ccc(C#N)cc2)ncc1C#C[C@@H]1CC[C@H](NC(=O)[C@H](C)N(C)C(=O)/C=C/CN(C)C)C1 [Compound 13-11]
–	–	–	< 10	< 10	< 10	–	–	CCCNc1nc(Nc2ccc3c(c2)c(F)nn3C)ncc1C#CCCCNC(=O)[C@@H]1CCCN1C(=O)/C=C/CN(C)C [Compound 22-61]
–	–	–	< 10	< 10	< 10	–	–	CCCNc1nc(Nc2ccc3c(cnn3CCOC)c2)ncc1C#CCCCNC(=O)[C@H](C)N(C)C(=O)/C=C/CN(C)C [Compound 22-10]
